In general, melting point refers to the temperature of the solid-liquid transition.

Molecules are shown by their SMILES.

In data set [1] the test system is Erysiphe polygoni (synonym: Erysiphe betae). The data set is described as follows: Test on the preventive effect against cucumber powdery mildew. The settings on record: 216 h, test solution A 500 ppm, 5 ml per pot sprayed, cucumber cotyledon stage, 9 days after inoculation. It is filed as in vivo. Put shortly:
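Cucumber (Sagami Hanjiro) at cotyledon stage sprayed with 500 ppm compound (diluted from 20 wt% emulsifiable concentrate), air-dried, then inoculated with Erysiphe polygoni conidia. Kept 9 days at 20 °C in greenhouse; lesion area ratio scored in duplicate, control value = [1−(treated/untreated lesion ratio)]×100.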

For a further data set, the system named is Botrytis cinerea. Put plainly: Test on the preventive effect against cucumber gray mold (spore inoculation). It is filed as in vivo. Particulars: 72 h, test solution A 500 ppm, 5 ml per pot, cucumber cut leaves, conidium inoculation, 3 days at 20° C. A digest of the protocol:
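Cotyledon-stage cucumber (Sagami Hanjiro) sprayed with 500 ppm compound from emulsifiable concentrate; detached treated leaves inoculated with B. cinerea conidia in PDA (1:1). After 3 days at 20 °C, humid, lesion proportion gave control value; duplicate test.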

Data set [2] concerns Phaeosphaeria nodorum (Synonym: Septoria nodorum). Put plainly: Test on the preventive effect against wheat glume blotch. It is filed as in vivo. Particulars: Parastagonospora nodorum, 144 h; test solution A 500 ppm, 5 ml per pot, wheat 1.3-leaf stage, 2 days inoculation chamber then 6 days at 20° C. A digest of the protocol: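 Wheat (cv. Haruyutaka) at 1.3-leaf stage sprayed with compound at 500 ppm as diluted emulsifiable concentrate, then inoculated one day later with conidial suspension. Kept 2 days at 20° C and 100% RH, then 6 days in a greenhouse at 20° C. Control value derived from lesion proportion on inoculated leaves; duplicate.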

The subject of a further data set is Puccinia recondita. Put plainly: Test on the preventive effect against wheat leaf rust. It is filed as in vivo. Particulars: 216 h, test solution A 500 ppm, 5 ml per pot, wheat 1.3-leaf stage, 1 day inoculation chamber then 8 days at 20° C. The procedure: Compounds of the present invention were dissolved in a solvent for emulsion (a mixture of Sorpol (registered trademark) 3005XL (manufactured by Toho Chemical Industry Co., Ltd.): N-methylpyrrolidone: Solvesso (registered trademark) 200 (manufactured by ExxonMobil Chemical) in a ratio of 1:5:2) to prepare 20 wt % emulsifiable concentrates. Then, distilled water was added to dilute the emulsifiable concentrates to the prescribed concentration (500 ppm), and the obtained solutions were used in the following the Test Examples 1 to 8. Wheat (varieties: Norin 61) was seeded in 90 cm^3 plastic pot, and at 1.3-leaf stage, 5 ml per pot of test solution A of the compounds of the present invention was applied. One day after treatment, a suspension of spores of Puccinia recondita was sprayed to the wheat, and the pot was left in the inoculation chamber at 20° C. under humidity of 100% RH for 1 day. Thereafter, the pot was placed in an air-conditioned greenhouse (20° C.) for 8 days. The proportion of the formed lesion in the inoculated leaves were counted to calculate the control value in accordance with the same formula as in the Test Example 1. The test was carried out in duplicate.

Data set [3] concerns Southern root-knot nematode (Meloidogyne incognita). Put plainly: Test on the preventive effect against Southern root-knot nematode (garden balsam seedlings). The data set is classed as in vivo. The settings on record: 504 h, test solution B 100 ppm, 1 ml per seedling to base of garden balsam seedlings, 3 weeks in greenhouse, read-out: efficacy (root knot damage degree relative to non-treated plot). The procedure: Compounds of the present invention were dissolved in dimethyl sulfoxide to prepare 1 wt % solutions. Then, distilled water was added to dilute the solutions to the prescribed concentration (100 ppm), and the obtained solutions were used in the following the Test Examples 9 to 12. 1 ml per seedling of test solution B of the compounds of the present invention was treated to the bases of garden balsam seedlings (about 2 weeks after budding) planted in a cell tray of which each cell was filled with 10 g of soil. 1 hour after the application, 1 ml per cell of water containing Southern root-knot nematode (Meloidogyne incognita) 2 L larvae (100 larvae of 2 L/1 ml) was applied to the base. The tray was placed in a greenhouse for 3 weeks, and the degree of root knot on the root was determined in accordance with the following damage index and the damage degree to calculate the efficacy (%) relative to the non-treated plot in accordance with the following formula. • 0: No knot formation was observed. • 1: Knot formations were observed on parts of the root system. • 2: Knot formations were observed on the entire root system. • 3: Large knot formations were observed. • 4: Large knot formations were observed on the entire root system. [Damage degree]=[Σ(damage index×number of each damaged indexed seedling)/(4×number of seedlings investigated)]×100 Efficacy (%)=[1−(damage degree in treated plot/damage degree in non-treated plot)]×100

With `CSC(CNC(=O)c1cn(C)nc1C(F)F)c1ncc(C#CC2CC2)cc1Cl` (centres unmarked) [8-020, N-[2-[3-chloro-5-(cyclopropylethynyl)pyridin-2-yl]-2-(methylthio)ethyl]-3-difluoromethyl-1-methyl-1H-pyrazole-4-carboxamide], the pest or weed control at 500 µg/mL (in data set [1]; in the data set on Botrytis cinerea) was at least 70% each time.
As for `COC(=O)C(CNC(=O)c1cn(C)nc1C(F)F)c1ncc(C#CC2CC2)cc1Cl` (centres unmarked) [8-022, 2-[3-chloro-5-(cyclopropylethynyl)pyridin-2-yl]-3-(3-difluoromethyl-1-methyl-1H-pyrazole-4-carboxamide)propionic acid methyl ester], the pest or weed control at 500 µg/mL (in data set [2]; with Puccinia recondita; in data set [1]; with Botrytis cinerea) was at least 70% each time.
As for `CC(C)(CNC(=O)c1cccnc1C(F)F)c1ncc(C#CC2CC2)cc1Cl` [3-007, N-[2-[3-chloro-5-(cyclopropylethynyl)pyridin-2-yl]-2-methylpropyl]-2-(difluoromethyl)nicotinamide], the pest or weed control at 500 µg/mL (in data set [2]; in data set [1]; in the data set with Botrytis cinerea) was at least 70% each time.
With `O=C(NCC(F)(F)c1ncc(C#CC2CC2)cc1Cl)c1ccccc1C(F)(F)F` [1-005], the melting point was in the range of 137 to 139 °C. The pest or weed control at 500 µg/mL in data set [2] was at least 70%. In data set [3], the pest or weed control at 100 µg/mL was at least 50%. Also, in data set [1], the pest or weed control at 500 µg/mL was at least 70%. Besides, the pest or weed control at 500 µg/mL in the data set on Botrytis cinerea is at least 70%.
On to `CC(CNC(=O)c1ccccc1C(F)(F)F)c1ncc(C#CC2CC2)cc1Cl` (centres unmarked) [1-007, N-[2-[3-chloro-5-(cyclopropylethynyl)pyridin-2-yl]propyl]-2-(trifluoromethyl)benzamide], for which the pest or weed control at 500 µg/mL (in data set [2]; in data set [1]; in the data set on Botrytis cinerea) was at least 70% in each case. Besides, the pest or weed control at 100 µg/mL in data set [3] was at least 50%.
Consider `Cn1cc(C(=O)NCC(F)(F)c2ncc(C#CC3CC3)cc2Cl)c(C(F)F)n1` [8-003], for which the melting point lay within 100 to 101 °C. Also, the pest or weed control at 500 µg/mL in data set [2] was at least 70%. The pest or weed control at 500 µg/mL in data set [1] was at least 70%. For the same compound, the pest or weed control at 500 µg/mL with Botrytis cinerea was at least 70%.
Regarding `CSC(CNC(=O)c1ccccc1C(F)(F)F)c1ncc(C#CC2CC2)cc1Cl` (centres unmarked) [1-021], the pest or weed control at 500 µg/mL (in data set [2]; in data set [1]; in the data set on Botrytis cinerea) was at least 70% in each case.
For the compound `COC(c1ncc(C#CC2CC2)cc1Cl)C(C)NC(=O)c1sc(C)nc1C(F)F` (centres unmarked) [9-006a], the pest or weed control at 500 µg/mL (in data set [2]; in data set [1]; with Botrytis cinerea) was at least 70% each time. Also, the pest or weed control at 100 µg/mL in data set [3] was at least 50%.
As for `O=C(NCC(c1ncc(C#CC2CC2)cc1Cl)C1CC1)c1ccccc1C(F)(F)F` (centres unmarked) [1-009], the pest or weed control at 500 µg/mL (in data set [2]; in data set [1]; in the data set with Botrytis cinerea) was at least 70% in each case. Moreover, the pest or weed control at 100 µg/mL in data set [3] is at least 50%.
`COC(c1ncc(C#CC2CC2)cc1Cl)C(C)NC(=O)c1cn(C)nc1C(F)F` (centres unmarked) [8-028, N-[2-[3-chloro-5-(cyclopropylethynyl)pyridin-2-yl]-2-methoxy-1-methylethyl]-3-difluoromethyl-1-methyl-1H-pyrazole-4-carboxamide]: the pest or weed control at 500 µg/mL (in data set [2]; in data set [1]; in the data set on Botrytis cinerea) was at least 70% throughout. Also, in data set [3], the pest or weed control at 100 µg/mL was at least 50%.
Turning to `Cn1cc(C(=O)NCC2(c3ncc(C#CC4CC4)cc3Cl)CC2)c(C(F)F)n1` [8-018, N-[[1-[3-chloro-5-(cyclopropylethynyl)pyridin-2-yl]cyclopropyl]methyl]-3-difluoromethyl-1-methyl-1H-pyrazole-4-carboxamide], the pest or weed control at 500 µg/mL (in data set [2]; in data set [1]; in the data set on Botrytis cinerea) was at least 70% throughout.
Take `COC(CNC(=O)c1cn(C)nc1C(F)F)c1ncc(C#CC2CC2)cc1Cl` (centres unmarked) [8-019]: the melting point was in the range of 110 to 111 °C. For the same compound, the pest or weed control at 500 µg/mL in data set [2] was at least 70%. Also, the pest or weed control at 100 µg/mL in data set [3] was at least 50%. In addition, the pest or weed control at 500 µg/mL in data set [1] was at least 70%. The compound further gave a pest or weed control at 500 µg/mL in the data set with Botrytis cinerea of at least 70%.
Take `C=C(CNC(=O)c1ccccc1C(F)(F)F)c1ncc(C#CC)cc1Cl` [1-012, N-[2-[3-chloro-5-(1-propynyl)pyridin-2-yl]-2-propenyl]-2-(trifluoromethyl)benzamide]: the melting point lay in the range of 85 to 90 °C. Besides, the pest or weed control at 500 µg/mL in data set [2] was at least 70%. The pest or weed control at 100 µg/mL in data set [3] is at least 50%. In data set [1], this compound displayed a pest or weed control at 500 µg/mL of at least 70%. In the data set with Botrytis cinerea, this compound gave a pest or weed control at 500 µg/mL of at least 70%.
Consider `CC(C)(CNC(=O)c1ccccc1C(F)(F)F)c1ncc(C#CC2CC2)cc1Cl` [1-008], for which the pest or weed control at 500 µg/mL (in data set [2]; in data set [1]; in the data set with Botrytis cinerea) was at least 70% in each case.
As to `CC(CNC(=O)c1cccnc1Cl)c1ncc(C#CC2CC2)cc1Cl` (centres unmarked) [3-005], the pest or weed control at 500 µg/mL (in data set [2]; in data set [1]; with Botrytis cinerea) was at least 70% each time. Further, in data set [3], the pest or weed control at 100 µg/mL is at least 50%.
For the compound `Cn1cc(C(=O)NCC(C)(C)c2ncc(C#CC3CC3)cc2Cl)c(C(F)F)n1` [8-008], the pest or weed control at 500 µg/mL (in data set [2]; in data set [1]; with Botrytis cinerea) was at least 70% throughout.
Compound `CC#Cc1cnc(CCNC(=O)c2ccccc2C(F)(F)F)c(Cl)c1` [1-001, N-[2-[3-chloro-5-(1-propynyl)pyridin-2-yl]ethyl]-2-(trifluoromethyl)benzamide] returned a melting point of 100 to 103 °C. Besides, the pest or weed control at 500 µg/mL in data set [2] was at least 70%. Further, in data set [1], the pest or weed control at 500 µg/mL was at least 70%. In the data set with Botrytis cinerea, this compound returned a pest or weed control at 500 µg/mL of at least 70%.
For the compound `Cc1nc(C(F)F)c(C(=O)NCC(C)c2ncc(C#CC3CC3)cc2Cl)s1` (centres unmarked) [9-002], the pest or weed control at 500 µg/mL (in data set [2]; in data set [1]; with Botrytis cinerea) was at least 70% in each case.
`O=C(NCCc1ncc(C#CC2CC2)cc1Cl)c1ccccc1C(F)(F)F` [1-002] displayed a melting point of 105 to 108 °C. Besides, the pest or weed control at 500 µg/mL in data set [2] was at least 70%. Moreover, in data set [1], the pest or weed control at 500 µg/mL was at least 70%. For the same compound, the pest or weed control at 500 µg/mL in the data set with Botrytis cinerea is at least 70%.
For `CC(C)(C)C#Cc1cnc(CCNC(=O)c2ccccc2C(F)(F)F)c(Cl)c1` [1-003, N-[2-[3-chloro-5-(3,3-dimethyl-1-butynyl)pyridin-2-yl]ethyl]-2-(trifluoromethyl)benzamide], the melting point was 90 to 92 °C. For the same compound, in data set [2], the pest or weed control at 500 µg/mL was at least 70%. Besides, the pest or weed control at 100 µg/mL in data set [3] was at least 50%. The same compound yielded a pest or weed control at 500 µg/mL in data set [1] of at least 70%. Further, in the data set with Botrytis cinerea, the pest or weed control at 500 µg/mL is at least 70%.
With `CC(CNC(=O)c1cccnc1C(F)F)c1ncc(C#CC2CC2)cc1Cl` (centres unmarked) [3-006], the pest or weed control at 500 µg/mL (in data set [2]; in data set [1]; in the data set with Botrytis cinerea) was at least 70% in each case. Also, the pest or weed control at 100 µg/mL in data set [3] is at least 50%.

For the origin of these results see US10029986B2, “Alkynyl pyridine-substituted amide compound and pesticide” (NISSAN CHEMICAL INDUSTRIES, LTD., priority 2014, dated 2018).
